“And” between values parts separate entries of the source, which are not always exact repeats. Identical values can stand only once. Like-named read-outs stand apart in the source and are kept apart here.
Experiments:
UVB induced oedema = test: UVB erythema assay (net skin fold thickness); format: in vivo, Skh-1 hairless albino female mice
[1] = tested on: reserpine-induced catatonia; test: Anti-reserpine activity (reserpine-induced catatonia); conditions: for Response at 15 min.: individual mice 1 and 2
Description: The biological activities of L-DOPA and L-DOPA-GTP2 were tested in an animal model of Parkinsons' disease, a condition caused by low levels of the neurotransmitter dopamine in the brain. Mice were pretreated with reserpine which depletes dopamine and causes animals to become catatonic. The ability of L-DOPA and L-DOPA-GTP2 to reverse this condition was measured.
Mice were injected intraperitoneally (ip) with reserpine (5 mg/kg) and 4 hours later tested for catatonia. A mouse was judged to be catatonic if it was able to stay on a stopper of 4.5 cm diameter for 5 minutes. Catatonic animals were then injected ip with L-DOPA or L-DOPA-GTP2 suspended in Miglyol (200-400 μl/mouse) immediately before use and observed.

B16 melanoma cells = test: Tumour Cytotoxicity Model (B16 melanoma in C57 mice); format: in vivo, C57 black mice; set-up: Mean (standard error) of B16 tumour volume adjusted for the variation in initial volume: scale not given here; conditions: for difference in tumour volume from the Vehicle group (95% level): 0.5 mg and 1.0 mg groups; for Mean (standard error) of B16 tumour volume adjusted for the variation in initial volume: statistically modified tumour volume; for B16 Tumour Volume: individual mice
Description: Groups of C57 black mice were given an initiation dose of 2×10^5 B16 melanoma cells as an intradermal injection. The cells were suspended in MEM without serum. The abdomen was clipped and 100 μl of cells + MEM was injected. […] The tumours were measured with a micrometer and photographed just prior to the injection of drug (day 8-10).
The cytotoxic drugs and their fatty acid conjugates were dissolved or suspended in 4:1 soy bean oil:ethyl oleate. A 10 mg/ml or a 20 mg/ml solution of each parent drug or the fatty acid conjugate made to the same molar concentration as the parent drug was then injected into the same region as the tumour at a dose of 0.5 mg or 1 mg. The tumours were then photographed, measured and re-injected every two to three days.

[2] = tested on: pain response on heated plate; conditions: for mean time response: standard error of each mean ±2.86
Description: The biological activities of Morphine (Mo) and fatty acid conjugates were tested in an antinociceptive assay using mice. Various doses and duration of pain-killing effect of the drugs were examined.
Quackenbush Strain mice (male, 5-week-old, approximately 30 g live weight) were used for the experiments. Animals were given free access to food and water prior to and during the experiment. Animals were divided into groups of 12 and individually weighed. The mean weight for each group was calculated. Mice were then placed on a metal block heated to 50° C. and the time taken for the animals to show signs of discomfort was measured (baseline response: control). Mice were then injected intraperitoneally (ip) with various doses of Morphine or Morphine-fatty acid conjugate. Morphine was made up in a H2O solution and Morphine-fatty acids were made up in an emulsion containing 10% glycerylmonooleate, 21% Miglyol, 6% ethanol, 24% Tween 80 (33%) and 39% H2O. 0.2 ml of appropriate solution was injected ip into each mouse. At different times after injection, responses on the heated plate were measured. In each experiment 3 doses of Morphine and Morphine-fatty acid and 2 time points were tested. A single mouse was used for each treatment and the entire experiment repeated at least 3 times. […] Members of the panel were asked to score mice behaviour according to the following key:
0=agitated mouse, distressed
1=showing mild discomfort
2=not agitated or uncomfortable but still alert
3=placid. docile; not at all worried.
Results from the panel were averaged.

[3] = DOPA moiety 364 mg/kg ip, 20 min
[4] = DOPA moiety 637 mg/kg ip, 20 min

CCCCCCCCCCCCCCCC(=O)OCC(COC(=O)CCCCCCCCCCCCCCC)(COC(=O)CCCCCCCCCCCCCCC)NC(=O)CNC(=O)CCC(=O)OCC(=O)C1(O)CCC2C3CCC4=CC(=O)CCC4(C)C3C(O)CC21C (stereo not drawn) [HC-Suc-GTP3, Hydrocortisone-Suc-Gly-Tris-Tripalmitate]
Mean Net Skin Fold Thickness (UVB induced oedema; 0.5 mg/mouse topical in ethanol, applied Day −5 (5 days prior to UV exposure), 2MED UVB, measured 24 h): 93.8 ± 9.8 10^−2 mm | Mean Net Skin Fold Thickness (UVB induced oedema; 0.5 mg/mouse topical, applied Day 0 after UV exposure, 2MED UVB): 55.8 ± 11.7 10^−2 mm | Mean Net Skin Fold Thickness (UVB induced oedema; 0.5 mg/mouse topical, applied Day −3 (3 days prior to UV exposure), 2MED UVB): 86.7 ± 9.4 10^−2 mm | activity equivalent to % of the hydrocortisone activity in protecting against UVB induced oedema (UVB induced oedema; 0.5 mg/mouse, applied at Day 0, post UVB exposure): approximately 50% | Mean Net Skin Fold Thickness (UVB induced oedema; 1 mg/mouse (1% w/v) topical, applied Day 0 after UV exposure): 27.9 ± 7.5 | Mean Net Skin Fold Thickness (UVB induced oedema; 1 mg/mouse (1% w/v) topical, applied Day −3): 62.9 ± 4.0 | Mean Net Skin Fold Thickness (UVB induced oedema; 1 mg/mouse (1% w/v) topical, applied Day −5): 103.8 ± 3.0

N[C@@H](Cc1ccc(O)c(O)c1)C(=O)O [L-DOPA, 3-(3,4-dihydroxyphenyl)-alanine, reference compound]
Anti-Reserpine Activity (response) [1, 3]: + | Anti-Reserpine Activity (response) [1, 4]: + | Response at 15 min. ([1]; L-DOPA moiety 9.1 mg/kg ip): − | Response at 15 min. ([1]; L-DOPA moiety 91 mg/kg ip): − and + | Response at 15 min. ([1]; L-DOPA moiety 364 mg/kg ip): + | Response at 15 min. ([1]; L-DOPA moiety 637 mg/kg ip): + | Response at 15 min. ([1]; L-DOPA moiety 910 mg/kg ip): + | doses at which all catatonic animals became active ([1]; ip, Experiment 1): ≥ 364 mg/kg | toxic effects observed in treated catatonic mice ([1]; mouse, in vivo, ip): toxic effects of L-DOPA such as rearing, salivating and jumping

CCCCCCCCCCCCCCCC(=O)OCC(CO)(COC(=O)CCCCCCCCCCCCCCC)NC(=O)CNC(=O)[C@@H](N)Cc1ccc(O)c(O)c1 [L-DOPA-GTP2, DOPA-Gly-Tris-Dipalmitate]
time after administration at which signs of recovery showed ([1]; 364 mg DOPA/kg ip): 7 h | time after administration at which signs of recovery showed ([1]; 637 mg DOPA/kg ip): 5 h | recovery from catatonia at low doses ([1]; 9.1 and 91 mg DOPA/kg ip): did not recover | Anti-Reserpine Activity (response) ([1]; DOPA moiety 9.1 mg/kg ip, 20 min): − − | Anti-Reserpine Activity (response) ([1]; DOPA moiety 9.1 mg/kg ip, 2 hr): − − | Anti-Reserpine Activity (response) ([1]; DOPA moiety 9.1 mg/kg ip, 5 hr): − − | Anti-Reserpine Activity (response) ([1]; DOPA moiety 9.1 mg/kg ip, 6 hr): − − | Anti-Reserpine Activity (response) ([1]; DOPA moiety 9.1 mg/kg ip, 7 hr): − − | Anti-Reserpine Activity (response) ([1]; DOPA moiety 9.1 mg/kg ip, 8 hr): − − | Anti-Reserpine Activity (response) ([1]; DOPA moiety 91 mg/kg ip, 20 min): − − | Anti-Reserpine Activity (response) ([1]; DOPA moiety 91 mg/kg ip, 2 hr): − − | Anti-Reserpine Activity (response) ([1]; DOPA moiety 91 mg/kg ip, 5 hr): − − | Anti-Reserpine Activity (response) ([1]; DOPA moiety 91 mg/kg ip, 6 hr): − − | Anti-Reserpine Activity (response) ([1]; DOPA moiety 91 mg/kg ip, 7 hr): − − | Anti-Reserpine Activity (response) ([1]; DOPA moiety 91 mg/kg ip, 8 hr): − − | Anti-Reserpine Activity (response) [1, 3]: − − | Anti-Reserpine Activity (response) ([1]; DOPA moiety 364 mg/kg ip, 2 hr): − − | Anti-Reserpine Activity (response) ([1]; DOPA moiety 364 mg/kg ip, 5 hr): − − | Anti-Reserpine Activity (response) ([1]; DOPA moiety 364 mg/kg ip, 6 hr): − − | Anti-Reserpine Activity (response) ([1]; DOPA moiety 364 mg/kg ip, 7 hr): M — | Anti-Reserpine Activity (response) ([1]; DOPA moiety 364 mg/kg ip, 8 hr): M M | Anti-Reserpine Activity (response) [1, 4]: − | Anti-Reserpine Activity (response) ([1]; DOPA moiety 637 mg/kg ip, 2 hr): − | toxic effects observed in treated catatonic mice ([1]; ip in Miglyol, active doses): did not exhibit the high activity level and toxic effects

CCCCCCCCCCCCCCCC(=O)OCC(CO)(COC(=O)CCCCCCCCCCCCCCC)NC(=O)CNC(=O)CC[C@H](NC(=O)c1ccc(N(C)Cc2cnc3nc(N)nc(N)c3n2)cc1)C(=O)O [MTXGTP2, Methotrexate-γ-Gly-Tris-Dipalmitate]
difference in tumour volume from the Vehicle group (95% level) (B16 melanoma cells): significant difference | Mean (standard error) of B16 tumour volume adjusted for the variation in initial volume (B16 melanoma cells; 13/11/95, 0.5 mg): 2.04 (0.565) | Mean (standard error) of B16 tumour volume adjusted for the variation in initial volume (B16 melanoma cells; 13/11/95, 1.0 mg): 2.30 (0.536) | Mean (standard error) of B16 tumour volume adjusted for the variation in initial volume (B16 melanoma cells; 15/11/95, 0.5 mg): 3.37 (0.884) | Mean (standard error) of B16 tumour volume adjusted for the variation in initial volume (B16 melanoma cells; 15/11/95, 1.0 mg): 3.40 (0.839) | Mean (standard error) of B16 tumour volume adjusted for the variation in initial volume (B16 melanoma cells; 16/11/95, 0.5 mg): 3.76 (1.06) | Mean (standard error) of B16 tumour volume adjusted for the variation in initial volume (B16 melanoma cells; 16/11/95, 1.0 mg): 4.13 (1.01) | Mean (standard error) of B16 tumour volume adjusted for the variation in initial volume (B16 melanoma cells; 17/11/95, 0.5 mg): 4.03 (1.28) | Mean (standard error) of B16 tumour volume adjusted for the variation in initial volume (B16 melanoma cells; 17/11/95, 1.0 mg): 4.89 (1.22) | B16 Tumour Volume (B16 melanoma cells; Day 1, drug dose 0.5 mg injected at tumour region): 0.5 mm^2 (2×) and 2.7 mm^2 and 16.6 mm^2 | B16 Tumour Volume (B16 melanoma cells; Day 1, drug dose 1.0 mg): 0.1 mm^2 and 8.2 mm^2 (2×) and 10.8 mm^2 | B16 Tumour Volume (B16 melanoma cells; Day 3, drug dose 0.5 mg): 0 mm^2 (3×) and 16.6 mm^2 | B16 Tumour Volume (B16 melanoma cells; Day 3, drug dose 1.0 mg): 0.1 mm^2 and 10.8 mm^2 and 0 mm^2 and 30.4 mm^2 | B16 Tumour Volume (B16 melanoma cells; Day 5, drug dose 0.5 mg): 0 mm^2 (2×) and 11.8 mm^2 and 64.5 mm^2 | B16 Tumour Volume (B16 melanoma cells; Day 5, drug dose 1.0 mg): 0.5 mm^2 and 21.8 mm^2 and 0 mm^2 and 142.5 mm^2 | B16 Tumour Volume (B16 melanoma cells; Day 6, drug dose 0.5 mg): 0 mm^2 (2×) and 19.8 mm^2 and 77.6 mm^2 | B16 Tumour Volume (B16 melanoma cells; Day 6, drug dose 1.0 mg): 0.5 mm^2 and 46.8 mm^2 and 0 mm^2 and 261.8 mm^2 | B16 Tumour Volume (B16 melanoma cells; Day 7, drug dose 0.5 mg): 0 mm^2 (2×) and 26 mm^2 and 113 mm^2 | B16 Tumour Volume (B16 melanoma cells; Day 7, drug dose 1.0 mg): 14 mm^2 and 50 mm^2 and 0 mm^2 and 379 mm^2

CN(Cc1cnc2nc(N)nc(N)c2n1)c1ccc(C(=O)N[C@@H](CCC(=O)O)C(=O)O)cc1 [Methotrexate, reference compound]
difference in tumour volume from the Vehicle group (95% level) (B16 melanoma cells): no significant difference | Mean (standard error) of B16 tumour volume adjusted for the variation in initial volume (B16 melanoma cells; 13/11/95, 0.5 mg): 3.58 (0.610) | Mean (standard error) of B16 tumour volume adjusted for the variation in initial volume (B16 melanoma cells; 15/11/95, 0.5 mg): 5.47 (0.955) | Mean (standard error) of B16 tumour volume adjusted for the variation in initial volume (B16 melanoma cells; 16/11/95, 0.5 mg): 6.07 (1.15) | Mean (standard error) of B16 tumour volume adjusted for the variation in initial volume (B16 melanoma cells; 17/11/95, 0.5 mg): 7.24 (1.38) | B16 Tumour Volume (B16 melanoma cells; Day 1, drug dose 0.5 mg injected at tumour region, listed as MTX): 0.5 mm^2 and 3.8 mm^2 and 14.1 mm^2 and 26 mm^2 | B16 Tumour Volume (B16 melanoma cells; Day 3, drug dose 0.5 mg, listed as MTX): 13.6 mm^2 and 4.2 mm^2 and 30.4 mm^2 and 86 mm^2 | B16 Tumour Volume (B16 melanoma cells; Day 5, drug dose 0.5 mg, listed as MTX): 73.5 mm^2 and 14.1 mm^2 and 86.0 mm^2 and 219.4 mm^2 | B16 Tumour Volume (B16 melanoma cells; Day 6, drug dose 0.5 mg, listed as MTX): 125.1 mm^2 and 14.1 mm^2 and 215.0 mm^2 and 266.5 mm^2 | B16 Tumour Volume (B16 melanoma cells; Day 7, drug dose 0.5 mg, listed as MTX): 190 mm^2 and 21 mm^2 and 234 mm^2 and 515 mm^2

CCCCCCCCCCCCCCCC(=O)OCC(COC(=O)CCCCCCCCCCCCCCC)(COC(=O)CCCCCCCCCCCCCCC)NC(=O)CNC(=O)CCC(=O)Oc1ccc2c3c1O[C@H]1[C@@H](O)C=C[C@H]4[C@@H](C2)N(C)CC[C@@]341 [Mo-Suc-GTP3, Morphine-Suc-Gly-Tris Tripalmitate]
mean time response ([2]; 1 mg Mo/kg ip, 4 hr): 23.5 s | mean time response ([2]; 1 mg Mo/kg ip, 6 hr): 27.8 s | mean time response ([2]; 10 mg Mo/kg ip, 4 hr): 29.8 s | mean time response ([2]; 10 mg Mo/kg ip, 6 hr): 29.0 s | duration of pain-killing effect compared with morphine ([2]; ip injection): longer lasting effect than morphine

Source: patent publication US20030023104A1, “Therapeutic compound - fatty acid conjugates” (COMMONWEALTH SCIENTIFIC AND INDUSTRIAL RESEARCH ORGANISATION, priority 1995, published 2003)
